≈ marks a conversion by molar mass, not a printed value.
How the values were obtained:
Assay in all cases: microbe, parasite or virus in culture
[1] = system: K. pneumonia 63575 (ESBL); conditions: Klebsiella pneumoniae
Protocol: (§1) The MICs of test agents were measured using a modified broth micro-dilution method in Difco Mueller Hinton medium, on a panel of bacterial pathogens that were both susceptible and resistant to common antibiotics (S1 File). Briefly, serial dilutions were performed in 0.01% acetic acid containing 0.2% bovine serum albumin at 10-fold the desired final concentration. Ten μL of the 10-fold concentrated test reagents were added to each well of a 96-well polypropylene microtitre plate containing 90 μL of Mueller Hinton media per well. Bacteria were added to the plate from an overnight culture at a final concentration of 2–7 x 10^5 CFU/mL and incubated overnight at 37°C. The MIC is defined as the concentration at which no growth was observed.
(§2) Screening of peptoid antimicrobial activity against a panel of multidrug resistant superbugs was done according to the protocol described in the manuscript. The bacterial strains used in this panel included; P. aeruginosa PAO1 strain H103 [1], P. maltophilia ATCC#13637, S. aureus ATCC#25923 [1], E. faecalis ATCC#29212 [2], and E. cloacae 218R, constitutively expressing Class C chromosomal β-lactamase, were from the Hancock lab strains collection. An MRSA clinical isolate was kindly provided by Anthony Chow (Vancouver General Hospital, Vancouver, Canada). Two Klebsiella pneumoniae and two E. coli clinical isolates expressing extended spectrum β-lactamases (ESBL) were kindly provided by George Zhanel (Health Sciences Centre, Winnipeg, Canada). Vancomycin-resistant clinical isolates of Enterococcus faecalis and E. faecium were obtained from Ana M. Paccagnella (BC Centre for Disease Control, Vancouver, Canada). Three clinical isolates (#9, #198 and #213) of multi-drug resistant P. aeruginosa, were kindly provided by Carlos Kiffer (University of São Paulo, Brazil). […] Three P. aeruginosa clinical isolates of the Liverpool epidemic strain (LES) (H1027, H1030 and LES400) were all kindly provided by Craig Winstanley (University of Liverpool, UK). […] All tested bacterial strains were categorized as biohazard level 2 pathogens.

[2] = system: P. aeruginosa 198 (MDR); conditions: Pseudomonas aeruginosa
Protocol: as §1, §2

[3] = system: P. aeruginosa H1027 (MDR); conditions: Pseudomonas aeruginosa
Protocol: as §1, §2

[4] = system: E. faecium mic80 (VRE); conditions: Enterococcus faecium, VRE
Protocol: as §1, §2

[5] = system: E. cloacae 218R Class C β-lactamase; conditions: Enterobacter cloacae
Protocol: as §1, §2

[6] = system: P. aeruginosa 9 (MDR); conditions: Pseudomonas aeruginosa
Protocol: as §1, §2

[7] = system: E. coli 63103 (ESBL); conditions: Escherichia coli
Protocol: as §1, §2

[8] = system: E. faecium T62764 (VRE); conditions: Enterococcus faecium, VRE
Protocol: as §1, §2

[9] = system: S. aureus C623 (MRSA); conditions: Staphylococcus aureus, MRSA
Protocol: as §1, §2

[10] = system: E. faecalis ATCC29212; conditions: Enterococcus faecalis, ATCC29212
Protocol: as §1, §2

[11] = system: P. aeruginosa LES400 (MDR); conditions: Pseudomonas aeruginosa
Protocol: as §1, §2

[12] = system: S. aureus ATCC25923; conditions: Staphylococcus aureus, ATCC25923
Protocol: as §1, §2

[13] = system: E. coli 64771 (ESBL); conditions: Escherichia coli
Protocol: as §1, §2

[14] = system: P. aeruginosa 213 (MDR); conditions: Pseudomonas aeruginosa
Protocol: as §1, §2

[15] = system: P. maltophilia ATCC13637; conditions: Stenotrophomonas maltophilia, ATCC13637
Protocol: as §1, §2

[16] = system: E. faecalis F43559 (VRE); conditions: Enterococcus faecalis, VRE
Protocol: as §1, §2

[17] = system: P. aeruginosa H103 (wild type); conditions: Pseudomonas aeruginosa
Protocol: as §1, §2

[18] = system: K. pneumonia 61962 (ESBL); conditions: Klebsiella pneumoniae
Protocol: as §1, §2

[19] = system: E. faecalis W61950 (VRE); conditions: Enterococcus faecalis, VRE
Protocol: as §1, §2

[20] = system: P. aeruginosa H1030 (MDR); conditions: Pseudomonas aeruginosa
Protocol: as §1, §2

Structure (SMILES)	MIC [1]	MIC [2]	MIC [3]	MIC [4]	MIC [5]	MIC [6]	MIC [7]	MIC [8]	MIC [9]	MIC [10]	MIC [11]	MIC [12]	MIC [13]	MIC [14]	MIC [15]	MIC [16]	MIC [17]	MIC [18]	MIC [19]	MIC [20]
CC(C)(O/N=C(\C(=O)N[C@@H]1C(=O)N2C(C(=O)[O-])=C(C[n+]3ccccc3)CS[C@H]12)c1csc(N)n1)C(=O)O [Ceftazidime, reference compound]	> 128 µg/mL	128 µg/mL (≈ 234 µM)	128 µg/mL (≈ 234 µM)	> 128 µg/mL	32 µg/mL (≈ 58.5 µM)	> 128 µg/mL	128 µg/mL (≈ 234 µM)	> 128 µg/mL	64 µg/mL (≈ 117 µM)	128 µg/mL (≈ 234 µM)	32 µg/mL (≈ 58.5 µM)	16 µg/mL (≈ 29.3 µM)	> 128 µg/mL	> 128 µg/mL	0.3 µg/mL (≈ 0.549 µM)	> 128 µg/mL	2 µg/mL (≈ 3.66 µM)	> 128 µg/mL	> 128 µg/mL	–
O=C(O)c1cn(C2CC2)c2cc(N3CCNCC3)c(F)cc2c1=O [Ciprofloxacin, reference compound]	64 µg/mL (≈ 193 µM)	32 µg/mL (≈ 96.6 µM)	1 µg/mL (≈ 3.02 µM)	32 µg/mL (≈ 96.6 µM)	–	128 µg/mL (≈ 386 µM)	> 128 µg/mL	128 µg/mL (≈ 386 µM)	2 µg/mL (≈ 6.04 µM)	0.3 µg/mL (≈ 0.905 µM)	0.5 µg/mL (≈ 1.51 µM)	0.1 µg/mL (≈ 0.302 µM)	> 128 µg/mL	64 µg/mL (≈ 193 µM)	0.3 µg/mL (≈ 0.905 µM)	32 µg/mL (≈ 96.6 µM)	0.1 µg/mL (≈ 0.302 µM)	0.1 µg/mL (≈ 0.302 µM)	32 µg/mL (≈ 96.6 µM)	0.3 µg/mL (≈ 0.905 µM)
C[C@@H](O)[C@H]1C(=O)N2C(C(=O)O)=C(SCCN=CN)C[C@H]12 [Imipenem, reference compound]	0.1 µg/mL (≈ 0.334 µM)	32 µg/mL (≈ 107 µM)	8 µg/mL (≈ 26.7 µM)	128 µg/mL (≈ 428 µM)	0.1 µg/mL (≈ 0.334 µM)	128 µg/mL (≈ 428 µM)	0.1 µg/mL (≈ 0.334 µM)	> 128 µg/mL	0.1 µg/mL (≈ 0.334 µM)	0.5 µg/mL (≈ 1.67 µM)	1 µg/mL (≈ 3.34 µM)	0.1 µg/mL (≈ 0.334 µM)	0.1 µg/mL (≈ 0.334 µM)	128 µg/mL (≈ 428 µM)	128 µg/mL (≈ 428 µM)	2 µg/mL (≈ 6.68 µM)	2 µg/mL (≈ 6.68 µM)	0.1 µg/mL (≈ 0.334 µM)	2 µg/mL (≈ 6.68 µM)	–
NC[C@H]1O[C@H](O[C@H]2[C@H](O)[C@@H](O[C@H]3O[C@H](CO)[C@@H](O)[C@H](N)[C@H]3O)[C@H](N)C[C@@H]2N)[C@H](N)C[C@@H]1O [Tobramycin, reference compound]	16 µg/mL (≈ 34.2 µM)	> 128 µg/mL	32 µg/mL (≈ 68.4 µM)	128 µg/mL (≈ 274 µM)	0.5 µg/mL (≈ 1.07 µM)	> 128 µg/mL	64 µg/mL (≈ 137 µM)	> 128 µg/mL	> 128 µg/mL	16 µg/mL (≈ 34.2 µM)	4 µg/mL (≈ 8.56 µM)	0.3 µg/mL (≈ 0.642 µM)	128 µg/mL (≈ 274 µM)	> 128 µg/mL	4 µg/mL (≈ 8.56 µM)	32 µg/mL (≈ 68.4 µM)	0.5 µg/mL (≈ 1.07 µM)	32 µg/mL (≈ 68.4 µM)	> 128 µg/mL	8 µg/mL (≈ 17.1 µM)
